# Experimental data: publication PMC11099041, “Tissue distribution and retention drives efficacy of rapidly clearing VHL-based PROTACs” (Communications Medicine, 2024)
# Like-named read-outs stand apart in the source and are kept apart here.
# Columns and labels:
# [1] = Protein binding by equilibrium dialysis (plasma, tissue homogenates, DPBS); format: in vitro ADME, rat; settings: rat, plasma
# Method: Control plasma was purchased from BioIVT, Hicksville, New York. Pooled plasma was obtained from at least three rats with K2EDTA as the anticoagulant. Control plasma was used to test the suitability of the system and for positive control analysis. Dulbecco’s phosphate-buffered saline (DPBS) (Millipore Sigma, St Louis, Missouri) was used to test the suitability of the system and as the receiver side of the dialysis device. […] The stock solution was added to the matrix (plasma or DPBS) and swirled to mix. The fortified matrix was then incubated at 37 °C for 15 min. Triplicate aliquots of the fortified matrix were analyzed by LSC.
# The high throughput dialysis apparatus, model HTD96b, was used (HTDialysis LLC, Gales Ferry, Connecticut). Prior to assembly, dialysis membrane strips (molecular weight cutoff of 6–8 kDa) were hydrated, and the Teflon bars were assembled according to manufacturer’s instructions, with dialysis membrane strips laid between bars creating two compartments per well. The assembled unit was locked in place in the steel base plate. A 150 µL aliquot of each fortified matrix (tissue homogenates, plasma, or DPBS) and DPBS were added to the donor and receiver side of the HTD wells in a Teflon plate, respectively, and the plate was sealed. Samples were incubated at 37 °C and rotated at 300 rpm for 7 hours. After incubation, the seal was removed, and tissue homogenates, plasma, or DPBS and dialysate from each device insert were analyzed by LSC. All protein binding determinations were performed in triplicate.
# Dialysis was performed accordingly. The radioactivity concentration of the test article in the donor and receiver samples was determined by LSC (count time 60 min) for the calculation of protein binding. […] After the designated time, aliquots of the individual donor and receiver samples were removed and analyzed by LSC. The remaining sample volume was stored at −20 °C.
# Dialysis was performed accordingly.
# Protein binding by equilibrium dialysis:1 PercentDrugBound=(Cm-Cd)/Cm×100 2 PercentDrugUnbound=100-PercentBound where: Cd, concentration of test article in dialysate at equilibrium; Cm, Concentration of test article in matrix at equilibrium.
# Recovery from equilibrium dialysis:3 Recovery(%)=(Cm×Vm)+(Cd×Vd)/(Co×Vo)×100 where: Cm, Concentration of test article in matrix at equilibrium; Cd, Concentration of test article in dialysate at equilibrium; Co, Original concentration of test article in matrix prior to loading the dialysis device; Vm, Nominal volume of the matrix at equilibrium; Vd, Nominal volume of the dialysate at equilibrium; Vo, Nominal volume of the original matrix added to the dialysis device.
# [2] = In vitro metabolism in rat hepatocytes; settings: 5 µM A947, 3 hr
# Method: (§1) Hepatocyte cell count was ~1.1–1.8 × 10^6 cells/mL. After 3 h, samples were quenched with 3 volumes of acetonitrile, vortex mixed, and centrifuged. The supernatant (5 µL) was analyzed by LC-MS using a Kinetex EVO C18 column (1.7 μm, 2.1 × 150 mm) at 40 °C with a flow rate of 0.4 mL/min. Mobile phase A was 20 mM ammonium acetate in water, and mobile phase B was acetonitrile. The column was initially held at 5% B for 2 min, increased to 75% B over 33 minutes, and then increased to 95% B over 3 min, where it was maintained for 3 minutes before returning to 5% B over 0.5 min for re-equilibration. Mass spectrometry data was acquired using positive ion mode and data-dependent MS^2 acquisition.
# [3] = In vitro metabolism in human hepatocytes; settings: human hepatocytes, 5 µM A947, 3 hr
# Method: as §1
# [4] = Metabolite profiling in rat bile, urine and feces (radio-HPLC, LC-HRMS); format: in vivo; settings: for %rad in feces: pooled feces
# Method: Tissue homogenate samples at 24 hours were extracted as plasma samples. […] The pooled urine samples containing 10% MeOH were analyzed by liquid chromatography-high resolution mass spectrometry (LC-HRMS).
# The pooled bile sample containing 10% MeOH was analyzed by LC-HRMS.
# Feces samples obtained from BDC and intact rats were pooled separately across time intervals for each animal (5% w/v) and further pooled across animals for each group to generate a 0–68 hour pooled sample. Approximately 1–2 g of each pooled feces sample was extracted as the same protocol used for plasma samples. […] The reconstituted samples were analyzed by LC-HRMS.
# The reconstituted samples were analyzed by LC-HRMS, with eluent fractions collected at 10-second intervals into 96-well plates containing solid scintillant. Radioactivity in each well was determined using TopCount analysis, and radiochemical profiles were generated based on radioactivity counts. Structural elucidation was performed based on mass spectral interpretation to identify metabolites.
# For metabolite profiling and identification, LC-MS analysis used a Shimadzu/Nexera LC-30 AD liquid chromatographic system and a ThermoFisher Scientific Q Exactive with a positive/negative heated electrospray interface. The column was a Waters XSelect HSS T3 4.6 mm × 250 mm, 3.5 µm and maintained at 40 °C. The mobile phases were (A) 20 mM ammonium acetate in water and (B) acetonitrile. […] The flow was 1 mL/min and split 20% to mass analysis and 80% collected for radioactivity counting. Mass spectrometry data was acquired with full scans at a resolution of 70,000 for a m/z range of 300 to 1500, and MS/MS scans were acquired at a resolution of 17,500. The mass spectrometer was operated with a normalized collision energy of 30 (ESI+), S-Lens RF level of 60, source voltage of +3.5 kV, Capillary temperature of 320 °C, and Probe heater temperature of 300 °C.
# [5] = human, 3 h, 5 µM
# Method: as §1
# [6] = male, Wistar Han, rat, 3 h, 5 µM
# Method: as §1
# [7] = IV 4 mg/kg, pooled 0–168-hour bile
# [8] = Sprague Dawley, in vivo, iv, 4 mg/kg
compound,measurement,setting,value
"CC(=O)CC(c1ccccc1)c1c(O)c2ccccc2oc1=O (stereo not drawn) [14C-warfarin, warfarin, reference compound]",Percent Unbound,"[1]; 7 h, 3000 ng/mL",approximately 1.5%
same,"fraction unbound at 7 h, 3000 ng/mL",[1]; Fu,0.015
same,"fraction unbound at 7 h, 3000 ng/mL",[1]; Percent Unbound,0.0146
Cc1ncsc1-c1ccc(C(C)NC(=O)C2CC(O)CN2C(=O)C(c2cc(N3CCC(C(=O)O)CC3)no2)C(C)C)cc1 (stereo not drawn) [M3],Estimated relative distribution percent of mass spectral abundance,[2],0.2%
same,Estimated relative distribution percent of mass spectral abundance,[3],0.04%
Nc1nnc(-c2ccccc2O)cc1N1CC2CCC(C1)N2c1ccnc(O)c1 [M5],%Rad in bile,[4]; [7],1.49%
same,%rad in feces,[4]; IV 4 mg/kg,1.86%
same,%rad in urine,"[4]; IV 4 mg/kg, pooled urine",7.53%
same,Estimated relative distribution percent of mass spectral abundance,[5],0.1%
CC(C)C(C(=O)N1CC(O)CC1C(=O)O)c1cc(N2CCC(CN3CCC(OC4CC(Oc5cc(N6C7CCC6CN(c6cc(-c8ccccc8O)nnc6N)C7)ccn5)C4)CC3)CC2)no1 (stereo not drawn) [M8],%Rad in bile,[4]; [8],3.47%
CC(C)C(C(=O)O)c1cc(N2CCC(CN3CCC(OC4CC(Oc5cc(N6C7CCC6CN(c6cc(-c8ccccc8O)nnc6N)C7)ccn5)C4)CC3)CC2)no1 (stereo not drawn) [M9],%Rad in bile,[4]; [8],3.08%
Nc1nnc(-c2ccccc2O)cc1N1CC2CCC(C1)N2c1ccnc(OC2CC(OC3CCNCC3)C2)c1 (stereo not drawn) [M10],%Rad in bile,[4]; [7],4.48%
same,Estimated relative distribution percent of mass spectral abundance,[5],2.6%
same,Estimated relative distribution percent of mass spectral abundance,[6],2.2%
Nc1nnc(-c2ccccc2O)cc1N1CC2CCC(C1)N2c1ccnc(OC2CC(O)C2)c1 (stereo not drawn) [M11],%Rad in bile,[4]; [7],2.79%
same,%rad in feces,[4]; IV 4 mg/kg,4.34%
same,%rad in urine,"[4]; IV 4 mg/kg, pooled urine",2.93%
same,Estimated relative distribution percent of mass spectral abundance,[5],0.8%
same,Estimated relative distribution percent of mass spectral abundance,[6],0.8%
Cc1ncsc1-c1ccc(C(C)NC(=O)C2CC(OC3OC(C(=O)O)C(O)C(O)C3O)CN2C(=O)C(c2cc(N3CCC(CN4CCC(OC5CC(Oc6cc(N7C8CCC7CN(c7cc(-c9ccccc9OC9OC(C(=O)O)C(O)C(O)C9O)nnc7N)C8)ccn6)C5)CC4)CC3)no2)C(C)C)cc1 (stereo not drawn) [M17],%rad in urine,[4]; [8],21.86%
Nc1nnc(-c2ccccc2O)cc1N1CC2CCC(C1)N2c1ccnc(OC2CC(OC3CCN(C=O)CC3)C2)c1 (stereo not drawn) [M18],%Rad in bile,[4]; [8],6.31%
